Assay results reported in ChEMBL document CHEMBL1137690, “Novel amide derivatives as inhibitors of histone deacetylase: design, synthesis and SAR” (Eur J Med Chem, 2009).

How the values were obtained:
HeLa = test: Antiproliferative activity against human HeLa cells after 4 hrs by WST-1 assay; format: functional, cell-based
P388 [1] = test: Antitumor activity in mouse P388 cells xenografted B6D2F1 mouse assessed as increase in life span at 20 mg/kg/day, ip administered 3 to 7 days postxenografting; format: functional; conditions: route intraperitoneal
P388 [2] = test: Antitumor activity in mouse P388 cells xenografted B6D2F1 mouse assessed as increase in life span at 60 mg/kg/day, ip administered 3 to 7 days postxenografting; format: functional; conditions: route intraperitoneal
Histone deacetylase = test: Inhibition of HDAC from human HeLa cells; format: cell-based
[3] = target: Histone deacetylase (Homo sapiens) (UniProt Q13547+O15379+Q9UBN7+Q92769+Q9UQL6+Q8WUI4+Q9BY41+Q96DB2+P56524+Q9UKV0+Q969S8); test: Inhibition of HDAC from human HeLa cells at 500 nM
Histone deacetylase 1 = Histone deacetylase 1 (Homo sapiens, UniProt Q13547); test: Inhibition of human recombinant HDAC1
Histone deacetylase 2 = Histone deacetylase 2 (Homo sapiens, UniProt Q92769); test: Inhibition of human recombinant HDAC2
Histone deacetylase 3 = Histone deacetylase 3 (Homo sapiens, UniProt O15379); test: Inhibition of human recombinant HDAC3
Histone deacetylase 4 = Histone deacetylase 4 (Homo sapiens, UniProt P56524); test: Inhibition of human recombinant HDAC4
[4] = target: T1, Protein deacetylase HDAC6 (Homo sapiens, UniProt Q9UBN7); test: Inhibition of human recombinant HDAC6
T1 sequence (Q9UBN7 whole entry): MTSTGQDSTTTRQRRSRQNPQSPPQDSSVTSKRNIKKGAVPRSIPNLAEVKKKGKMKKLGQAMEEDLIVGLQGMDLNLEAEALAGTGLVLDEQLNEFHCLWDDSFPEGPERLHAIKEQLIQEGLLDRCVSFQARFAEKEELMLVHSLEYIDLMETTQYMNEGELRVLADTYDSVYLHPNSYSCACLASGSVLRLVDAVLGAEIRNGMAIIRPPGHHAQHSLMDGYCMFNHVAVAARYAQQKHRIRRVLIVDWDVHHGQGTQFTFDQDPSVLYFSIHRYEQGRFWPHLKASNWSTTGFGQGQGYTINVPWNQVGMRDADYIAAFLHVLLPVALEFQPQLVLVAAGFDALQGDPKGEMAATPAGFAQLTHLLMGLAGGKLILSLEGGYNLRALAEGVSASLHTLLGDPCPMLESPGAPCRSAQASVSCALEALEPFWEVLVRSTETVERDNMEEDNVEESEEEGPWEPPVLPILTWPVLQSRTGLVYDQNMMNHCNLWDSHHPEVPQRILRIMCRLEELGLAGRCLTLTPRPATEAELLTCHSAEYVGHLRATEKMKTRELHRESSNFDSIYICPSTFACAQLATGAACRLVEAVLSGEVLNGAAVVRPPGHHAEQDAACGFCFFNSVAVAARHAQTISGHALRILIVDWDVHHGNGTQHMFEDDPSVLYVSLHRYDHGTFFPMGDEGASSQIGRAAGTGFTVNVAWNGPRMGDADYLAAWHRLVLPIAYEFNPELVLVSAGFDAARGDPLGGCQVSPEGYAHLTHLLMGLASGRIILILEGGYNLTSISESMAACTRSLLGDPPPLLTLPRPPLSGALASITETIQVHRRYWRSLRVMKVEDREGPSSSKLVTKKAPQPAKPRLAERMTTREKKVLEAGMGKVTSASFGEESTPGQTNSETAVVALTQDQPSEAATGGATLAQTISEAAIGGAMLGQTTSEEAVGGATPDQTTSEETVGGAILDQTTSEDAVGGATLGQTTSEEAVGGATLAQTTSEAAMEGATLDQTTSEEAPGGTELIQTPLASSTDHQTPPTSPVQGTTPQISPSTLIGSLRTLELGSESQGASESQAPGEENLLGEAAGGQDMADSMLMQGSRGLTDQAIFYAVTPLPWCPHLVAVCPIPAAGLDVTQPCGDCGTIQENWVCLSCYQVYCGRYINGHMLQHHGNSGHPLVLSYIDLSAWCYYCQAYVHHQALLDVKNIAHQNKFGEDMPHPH

Histone deacetylase 8 = target: T2, Histone deacetylase 8 (Homo sapiens, UniProt Q9BY41); test: Inhibition of human recombinant HDAC8
T2 sequence (Q9BY41 whole entry): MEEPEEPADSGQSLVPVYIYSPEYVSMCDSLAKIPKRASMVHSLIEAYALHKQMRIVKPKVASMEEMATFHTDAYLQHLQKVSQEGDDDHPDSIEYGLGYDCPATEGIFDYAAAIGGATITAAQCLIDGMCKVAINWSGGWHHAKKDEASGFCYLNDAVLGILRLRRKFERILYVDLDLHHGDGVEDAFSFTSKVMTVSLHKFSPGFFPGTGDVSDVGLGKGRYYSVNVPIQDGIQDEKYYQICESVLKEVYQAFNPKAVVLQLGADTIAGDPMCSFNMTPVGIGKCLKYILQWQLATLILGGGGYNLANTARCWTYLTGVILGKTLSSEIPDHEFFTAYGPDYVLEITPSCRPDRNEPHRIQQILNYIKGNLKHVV

Histone deacetylase 9 = Histone deacetylase 9 (Homo sapiens, UniProt Q9UKV0); test: Inhibition of human recombinant HDAC9
P388 [5] = test: Antitumor activity in mouse P388 cells xenografted B6D2F1 mouse assessed as increase in life span at 100 mg/kg/day, ip administered 3 to 7 days postxenografting; format: functional; conditions: route intraperitoneal

Chain of Histone deacetylase 9 (Q9UKV0 whole entry): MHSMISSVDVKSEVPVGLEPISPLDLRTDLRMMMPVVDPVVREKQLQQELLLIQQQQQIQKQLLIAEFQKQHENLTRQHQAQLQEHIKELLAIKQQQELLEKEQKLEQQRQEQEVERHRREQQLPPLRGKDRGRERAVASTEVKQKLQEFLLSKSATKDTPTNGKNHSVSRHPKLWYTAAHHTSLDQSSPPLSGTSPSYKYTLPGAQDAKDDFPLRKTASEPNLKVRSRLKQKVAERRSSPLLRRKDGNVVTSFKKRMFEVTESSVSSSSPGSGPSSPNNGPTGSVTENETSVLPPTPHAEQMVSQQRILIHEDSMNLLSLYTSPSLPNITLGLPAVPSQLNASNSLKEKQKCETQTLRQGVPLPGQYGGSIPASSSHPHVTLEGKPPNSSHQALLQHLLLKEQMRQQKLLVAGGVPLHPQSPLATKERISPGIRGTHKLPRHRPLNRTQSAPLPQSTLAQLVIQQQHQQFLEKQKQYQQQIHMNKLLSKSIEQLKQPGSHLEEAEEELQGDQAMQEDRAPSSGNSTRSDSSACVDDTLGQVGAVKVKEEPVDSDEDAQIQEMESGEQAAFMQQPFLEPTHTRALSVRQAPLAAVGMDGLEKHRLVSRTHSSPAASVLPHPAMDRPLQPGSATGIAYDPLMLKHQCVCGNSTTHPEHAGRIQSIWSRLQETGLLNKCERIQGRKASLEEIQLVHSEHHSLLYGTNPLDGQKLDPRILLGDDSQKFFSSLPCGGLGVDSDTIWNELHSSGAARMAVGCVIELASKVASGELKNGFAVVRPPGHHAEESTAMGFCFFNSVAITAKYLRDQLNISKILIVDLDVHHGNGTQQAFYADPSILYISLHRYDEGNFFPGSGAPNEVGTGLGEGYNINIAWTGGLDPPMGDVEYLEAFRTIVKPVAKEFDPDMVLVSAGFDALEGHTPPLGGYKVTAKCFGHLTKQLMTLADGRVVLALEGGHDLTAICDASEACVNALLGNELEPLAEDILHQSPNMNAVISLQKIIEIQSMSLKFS
Chain of Histone deacetylase 4 (P56524 whole entry): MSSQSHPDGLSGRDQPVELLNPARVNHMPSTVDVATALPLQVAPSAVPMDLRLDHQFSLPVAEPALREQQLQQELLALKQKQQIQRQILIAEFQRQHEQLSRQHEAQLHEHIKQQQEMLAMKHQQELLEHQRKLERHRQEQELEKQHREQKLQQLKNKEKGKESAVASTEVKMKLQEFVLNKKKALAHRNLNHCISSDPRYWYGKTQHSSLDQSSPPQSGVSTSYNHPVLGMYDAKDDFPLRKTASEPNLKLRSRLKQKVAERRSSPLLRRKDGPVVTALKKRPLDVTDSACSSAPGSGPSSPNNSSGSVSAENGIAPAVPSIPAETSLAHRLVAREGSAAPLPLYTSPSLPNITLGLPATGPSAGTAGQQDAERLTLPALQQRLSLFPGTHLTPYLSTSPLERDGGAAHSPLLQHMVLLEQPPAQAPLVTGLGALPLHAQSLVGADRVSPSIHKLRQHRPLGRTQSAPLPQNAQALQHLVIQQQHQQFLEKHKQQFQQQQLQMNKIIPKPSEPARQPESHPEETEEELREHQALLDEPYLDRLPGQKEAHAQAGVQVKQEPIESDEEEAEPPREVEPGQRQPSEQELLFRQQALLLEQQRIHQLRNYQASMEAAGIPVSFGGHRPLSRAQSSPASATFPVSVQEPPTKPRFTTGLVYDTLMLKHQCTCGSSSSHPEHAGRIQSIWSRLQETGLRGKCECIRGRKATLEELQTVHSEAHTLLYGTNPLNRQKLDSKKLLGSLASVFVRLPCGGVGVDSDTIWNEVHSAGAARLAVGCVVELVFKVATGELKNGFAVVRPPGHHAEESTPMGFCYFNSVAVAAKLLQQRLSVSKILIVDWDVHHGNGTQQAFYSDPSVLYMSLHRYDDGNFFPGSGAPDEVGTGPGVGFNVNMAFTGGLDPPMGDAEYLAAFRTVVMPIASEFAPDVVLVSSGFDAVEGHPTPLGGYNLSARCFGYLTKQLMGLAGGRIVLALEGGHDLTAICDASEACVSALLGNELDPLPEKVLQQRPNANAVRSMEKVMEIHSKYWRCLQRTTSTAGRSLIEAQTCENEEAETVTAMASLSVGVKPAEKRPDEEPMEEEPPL
Chain of Histone deacetylase 2 (Q92769 whole entry): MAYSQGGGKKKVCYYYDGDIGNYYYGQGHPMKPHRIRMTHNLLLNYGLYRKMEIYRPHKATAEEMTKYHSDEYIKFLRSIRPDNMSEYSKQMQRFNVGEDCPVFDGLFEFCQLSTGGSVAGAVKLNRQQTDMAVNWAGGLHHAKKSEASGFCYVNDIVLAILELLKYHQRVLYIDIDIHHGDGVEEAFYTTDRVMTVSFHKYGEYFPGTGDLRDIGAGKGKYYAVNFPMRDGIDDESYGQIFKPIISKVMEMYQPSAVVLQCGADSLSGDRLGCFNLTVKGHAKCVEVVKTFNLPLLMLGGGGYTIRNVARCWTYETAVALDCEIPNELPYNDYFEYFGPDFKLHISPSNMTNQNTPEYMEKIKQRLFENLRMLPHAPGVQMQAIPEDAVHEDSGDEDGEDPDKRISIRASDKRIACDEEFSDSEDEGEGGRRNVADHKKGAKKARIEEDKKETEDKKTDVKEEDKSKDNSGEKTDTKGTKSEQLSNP
Chain of Histone deacetylase 3 (O15379 whole entry): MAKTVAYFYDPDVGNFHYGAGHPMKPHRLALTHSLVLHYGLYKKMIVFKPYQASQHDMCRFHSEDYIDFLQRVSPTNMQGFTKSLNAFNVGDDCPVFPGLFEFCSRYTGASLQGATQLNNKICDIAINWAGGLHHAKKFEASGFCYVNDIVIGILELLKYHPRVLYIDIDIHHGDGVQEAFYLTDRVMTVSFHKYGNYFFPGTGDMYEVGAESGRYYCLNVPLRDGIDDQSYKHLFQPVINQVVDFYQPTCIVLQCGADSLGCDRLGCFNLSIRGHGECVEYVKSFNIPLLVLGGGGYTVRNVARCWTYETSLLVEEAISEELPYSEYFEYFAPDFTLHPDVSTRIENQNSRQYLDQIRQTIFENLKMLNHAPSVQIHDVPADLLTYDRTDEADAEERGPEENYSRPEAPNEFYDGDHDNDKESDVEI
Chain of Histone deacetylase 1 (Q13547 whole entry): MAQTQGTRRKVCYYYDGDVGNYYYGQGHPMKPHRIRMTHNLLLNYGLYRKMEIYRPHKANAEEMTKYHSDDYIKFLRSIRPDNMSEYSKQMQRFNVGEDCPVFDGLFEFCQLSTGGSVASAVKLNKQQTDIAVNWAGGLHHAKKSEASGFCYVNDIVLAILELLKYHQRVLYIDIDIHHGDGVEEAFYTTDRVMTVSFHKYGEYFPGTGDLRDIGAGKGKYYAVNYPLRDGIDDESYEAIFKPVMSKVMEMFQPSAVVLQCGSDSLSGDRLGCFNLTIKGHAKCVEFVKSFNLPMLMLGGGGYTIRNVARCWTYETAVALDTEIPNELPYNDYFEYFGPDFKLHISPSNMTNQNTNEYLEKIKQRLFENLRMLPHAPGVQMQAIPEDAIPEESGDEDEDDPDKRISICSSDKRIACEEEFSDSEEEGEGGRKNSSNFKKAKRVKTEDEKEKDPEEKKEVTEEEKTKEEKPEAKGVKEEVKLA

`O=C(/C=C/c1ccc(Cl)cc1F)NCCCCCC(=O)NO` showed an IC50 (HeLa; 48 h) of 6.3 µM, an Activity (P388 [1]) of 0% and an Activity (P388 [2]) of 22%.

`O=C(C=C(c1ccccc1)c1ccccc1)NCCCCCC(=O)NO` showed an IC50 (Histone deacetylase) of 0.201 µM and an IC50 (HeLa; 48 h) of 8.5 µM.

`O=C(CCCCCNC(=O)c1ccc(-c2ccccc2)cc1)NO` showed an IC50 (Histone deacetylase) of 0.038 µM and an IC50 (HeLa; 48 h) of 2.6 µM.

Compound `O=C(CCCCCNC(=O)C/C=C/c1ccccc1)NO` has an IC50 (HeLa; 48 h) of 24 µM and an inhibition [3] of 53%.

For `O=C(/C=C/c1cccc2cccnc12)NCCCCCC(=O)NO`, the IC50 (Histone deacetylase) was 0.025 µM and the IC50 (HeLa; 48 h) was 20.9 µM.

In the case of `O=C(C=C1c2ccccc2CCc2ccccc21)NCCCCCC(=O)NO`, the IC50 (Histone deacetylase) is reported as 0.338 µM and the IC50 (HeLa; 48 h) is reported as 9.9 µM.

Compound `O=C(C=C1c2ccccc2-c2ccccc21)NCCCCCC(=O)NO` has an IC50 (Histone deacetylase) of 0.005 µM, an IC50 (Histone deacetylase 1) of 0.0016 µM and an IC50 (Histone deacetylase 2) of 0.0008 µM. It also gave an IC50 (Histone deacetylase 3) of 0.0028 µM, an IC50 (Histone deacetylase 4) of 0.0012 µM and an IC50 [4] of 0.002 µM. The IC50 (Histone deacetylase 8) was 0.779 µM, the IC50 (Histone deacetylase 9) was 0.0023 µM and the IC50 (HeLa; 48 h) was 1.7 µM. For the same compound, the Activity (P388 [1]) was 11% and the Activity (P388 [2]) was 78%.

`O=C(/C=C/c1cccnc1)NCCCCCC(=O)NO.O=C(O)C(=O)O` gave an IC50 (Histone deacetylase) of 0.141 µM and an IC50 (HeLa; 48 h) of 28.4 µM.

In the case of `O=C(/C=C/c1ccccc1)NCCCCCC(=O)NO`, the IC50 (Histone deacetylase) is reported as 0.032 µM and the IC50 (HeLa; 48 h) is reported as 5.5 µM.

`CN(C)c1ccc(C(=O)NCCCCCC(=O)NO)cc1` showed an IC50 (HeLa; 48 h) of 4.1 µM.

`O=C(CCCCCCC(=O)Nc1ccccc1)NO` [VORINOSTAT] showed an Activity (P388 [5]) of 14%, an Activity (P388 [1]) of 11% and an Activity (P388 [2]) of 0%.

With `O=C(CCCCCNC(=O)CCCc1ccccc1)NO` the IC50 (HeLa; 48 h) was 52.7 µM and the inhibition [3] was 19%.

In the case of `O=C(CCCCCCC(=O)NCc1ccccc1)NO`, the IC50 (HeLa; 48 h) is reported as 44.2 µM and the inhibition [3] is reported as 39%.

Work on `O=C(CCCCCCC(=O)NCCc1ccccc1)NO` yielded an IC50 (HeLa; 48 h) of 13.3 µM and an inhibition [3] of 46%.

In the case of `O=C(/C=C/C=C/c1ccccc1)NCCCCCC(=O)NO`, the IC50 (Histone deacetylase) is reported as 0.029 µM and the IC50 (HeLa; 48 h) is reported as 5.1 µM.

With `O=C(CCCCCNC(=O)Cc1ccc(-c2ccccc2)cc1)NO` the IC50 (HeLa; 48 h) was 35.9 µM and the inhibition [3] was 51%.

Compound `O=C(CCCCCNC(=O)CCc1ccccc1)NO` has an IC50 (HeLa; 48 h) of 74.8 µM and an inhibition [3] of 27%.

Compound `O=C(/C=C/c1ccc2ccccc2c1)NCCCCCC(=O)NO` has an IC50 (Histone deacetylase) of 0.007 µM and an IC50 (HeLa; 48 h) of 18.3 µM.

For `O=C(/C=C/c1ccc2cccnc2c1)NCCCCCC(=O)NO`, the IC50 (HeLa; 48 h) was 12.3 µM, the Activity (P388 [1]) was 0% and the Activity (P388 [2]) was 111%.

`O=C(C#Cc1ccccc1)NCCCCCC(=O)NO` was tested, and the IC50 (Histone deacetylase) was 0.062 µM and the IC50 (HeLa; 4 h) was 10.6 µM.

`CC(/C=C/c1ccccc1)=C\C(=O)NCCCCCC(=O)NO` was tested, and the IC50 (HeLa; 48 h) was 4.8 µM.

With `O=C(CCCCNC(=O)c1ccc2ccccc2c1)NO` the IC50 (HeLa; 48 h) was 24.7 µM and the inhibition [3] was 42%.

`O=C(/C=C/c1ccccn1)NCCCCCC(=O)NO.O=C(O)C(=O)O` was tested, and the IC50 (Histone deacetylase) was 0.046 µM and the IC50 (HeLa; 48 h) was 9.5 µM.

With `O=C(CCCCCCCNC(=O)c1ccc2ccccc2c1)NO` the IC50 (Histone deacetylase) was 0.028 µM and the IC50 (HeLa; 48 h) was 3.6 µM.

`O=C(/C=C/c1ccncc1)NCCCCCC(=O)NO.O=C(O)C(=O)O` showed an IC50 (Histone deacetylase) of 0.101 µM and an IC50 (HeLa; 48 h) of 46.4 µM.

`CN(C)c1ccc(CC(=O)NCCCCCC(=O)NO)cc1` was tested, and the IC50 (HeLa; 48 h) was 52.7 µM and the inhibition [3] was 9%.

`O=C(CCCCCNC(=O)CCCCc1ccccc1)NO` was tested, and the IC50 (HeLa; 48 h) was 70.8 µM and the inhibition [3] was 51%.

Compound `O=C(CCCCCCNC(=O)c1ccc2ccccc2c1)NO` has an IC50 (HeLa; 48 h) of 0.4 µM.

`CC(/C=C/C(=O)NCCCC(=O)NO)=C\c1ccccc1` showed an IC50 (Histone deacetylase) of 22.85 µM and an IC50 (HeLa; 48 h) of 114 µM.

`O=C(CCCCCNC(=O)CC/C=C/c1ccccc1)NO` was tested, and the IC50 (Histone deacetylase) was 0.625 µM and the IC50 (HeLa; 48 h) was 20.6 µM.
